The values below come from patent US10344060B2 (priority 2013, dated 2019).

Test in all cases: cell-based
Experiment [1] addresses T1, hNav1.7 (Homo sapiens, UniProt Q15858). Conditions: for IC50: read-out: IC50 (μM) Nav1.7.
A further experiment addresses hNav1.5 (Homo sapiens, UniProt Q14524). Conditions: IonWorks Quattro, read-out: IC50 (μM) Nav1.5. (In patch-clamp work, channel activity is measured electrically.)
Experiment [2] deals with T2, hNav1.4 (Homo sapiens, UniProt P35499). The experiment is classed as cell-based. The conditions noted are these: for IC50: IonWorks Quattro, read-out: IC50 (μM) Nav1.4; for Nav1.4/Nav1.7: ratio of IonWorks Quattro IC50 values.
Another experiment concerns the target hNav1.3 (Homo sapiens, UniProt Q9NY46). The conditions noted are these: IonWorks Quattro, read-out: IC50 (μM) Nav1.3.
A further experiment concerns the target hNav1.6 (Homo sapiens, UniProt Q9UQD0). It counts as cell-based. The conditions noted are these: Table 15; for IC50: read-out: PX hNav1.6 Tonic IC50.
Experiment [3] has as its target T1, hNav1.7. It counts as cell-based. Conditions: for Nav1.4/Nav1.7 / Nav1.5/Nav1.7: ratio of PX tonic IC50 values, Table 11; for IC50: read-out: PX hNav1.7 Tonic IC50.
For experiment [4], the target named is T2, hNav1.4. The experiment is classed as cell-based. The conditions noted are these: PX.

Where two headings read alike, the source gives them in different places.

Chain of hNav1.6 (Q9UQD0 whole entry): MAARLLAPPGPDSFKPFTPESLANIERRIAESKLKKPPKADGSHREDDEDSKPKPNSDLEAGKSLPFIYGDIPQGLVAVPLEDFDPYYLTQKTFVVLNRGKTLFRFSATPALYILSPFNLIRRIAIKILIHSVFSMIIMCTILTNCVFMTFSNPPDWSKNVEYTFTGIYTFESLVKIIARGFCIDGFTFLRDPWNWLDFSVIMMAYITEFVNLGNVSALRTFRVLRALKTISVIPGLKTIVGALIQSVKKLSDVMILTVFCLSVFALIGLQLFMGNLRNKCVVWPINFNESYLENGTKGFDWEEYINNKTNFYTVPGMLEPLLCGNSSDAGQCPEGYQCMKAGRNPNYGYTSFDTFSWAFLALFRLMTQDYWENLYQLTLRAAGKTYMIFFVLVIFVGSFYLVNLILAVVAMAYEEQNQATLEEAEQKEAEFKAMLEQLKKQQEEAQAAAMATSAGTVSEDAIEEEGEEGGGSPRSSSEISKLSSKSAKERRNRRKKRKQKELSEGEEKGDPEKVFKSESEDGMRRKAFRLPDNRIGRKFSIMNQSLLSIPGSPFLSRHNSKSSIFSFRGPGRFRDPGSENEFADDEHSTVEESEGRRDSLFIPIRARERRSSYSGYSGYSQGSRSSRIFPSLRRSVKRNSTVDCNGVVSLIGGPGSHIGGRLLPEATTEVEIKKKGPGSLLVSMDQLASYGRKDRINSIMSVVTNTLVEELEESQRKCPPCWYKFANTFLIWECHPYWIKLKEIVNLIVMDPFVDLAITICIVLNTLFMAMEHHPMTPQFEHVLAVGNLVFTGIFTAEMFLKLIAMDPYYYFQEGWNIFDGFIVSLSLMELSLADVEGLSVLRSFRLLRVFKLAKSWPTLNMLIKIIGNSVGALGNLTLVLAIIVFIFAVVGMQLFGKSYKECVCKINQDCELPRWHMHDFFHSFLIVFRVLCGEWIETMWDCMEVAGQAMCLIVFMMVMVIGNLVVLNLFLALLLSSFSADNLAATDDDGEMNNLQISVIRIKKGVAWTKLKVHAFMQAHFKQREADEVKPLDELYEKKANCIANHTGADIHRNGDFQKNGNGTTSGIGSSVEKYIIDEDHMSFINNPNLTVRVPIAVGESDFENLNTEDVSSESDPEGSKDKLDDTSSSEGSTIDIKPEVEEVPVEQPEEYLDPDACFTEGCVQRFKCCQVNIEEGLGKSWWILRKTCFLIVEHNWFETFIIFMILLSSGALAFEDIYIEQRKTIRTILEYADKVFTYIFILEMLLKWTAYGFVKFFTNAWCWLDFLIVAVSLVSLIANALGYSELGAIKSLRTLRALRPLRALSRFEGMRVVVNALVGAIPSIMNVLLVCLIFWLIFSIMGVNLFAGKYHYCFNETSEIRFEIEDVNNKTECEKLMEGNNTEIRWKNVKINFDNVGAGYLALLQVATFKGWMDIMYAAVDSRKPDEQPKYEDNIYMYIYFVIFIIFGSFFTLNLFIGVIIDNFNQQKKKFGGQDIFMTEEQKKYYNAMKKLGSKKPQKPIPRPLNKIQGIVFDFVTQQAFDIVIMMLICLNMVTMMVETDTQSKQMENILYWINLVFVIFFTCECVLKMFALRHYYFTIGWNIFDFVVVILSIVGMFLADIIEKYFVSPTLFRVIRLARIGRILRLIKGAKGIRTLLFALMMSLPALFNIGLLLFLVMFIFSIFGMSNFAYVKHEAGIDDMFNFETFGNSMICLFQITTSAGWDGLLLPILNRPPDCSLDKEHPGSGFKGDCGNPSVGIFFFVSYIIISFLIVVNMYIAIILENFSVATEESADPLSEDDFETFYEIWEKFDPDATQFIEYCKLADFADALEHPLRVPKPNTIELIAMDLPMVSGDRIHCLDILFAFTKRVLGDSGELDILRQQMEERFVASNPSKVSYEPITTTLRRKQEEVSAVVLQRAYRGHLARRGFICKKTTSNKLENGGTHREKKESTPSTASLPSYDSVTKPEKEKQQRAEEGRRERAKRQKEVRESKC
Chain of hNav1.3 (Q9NY46 whole entry): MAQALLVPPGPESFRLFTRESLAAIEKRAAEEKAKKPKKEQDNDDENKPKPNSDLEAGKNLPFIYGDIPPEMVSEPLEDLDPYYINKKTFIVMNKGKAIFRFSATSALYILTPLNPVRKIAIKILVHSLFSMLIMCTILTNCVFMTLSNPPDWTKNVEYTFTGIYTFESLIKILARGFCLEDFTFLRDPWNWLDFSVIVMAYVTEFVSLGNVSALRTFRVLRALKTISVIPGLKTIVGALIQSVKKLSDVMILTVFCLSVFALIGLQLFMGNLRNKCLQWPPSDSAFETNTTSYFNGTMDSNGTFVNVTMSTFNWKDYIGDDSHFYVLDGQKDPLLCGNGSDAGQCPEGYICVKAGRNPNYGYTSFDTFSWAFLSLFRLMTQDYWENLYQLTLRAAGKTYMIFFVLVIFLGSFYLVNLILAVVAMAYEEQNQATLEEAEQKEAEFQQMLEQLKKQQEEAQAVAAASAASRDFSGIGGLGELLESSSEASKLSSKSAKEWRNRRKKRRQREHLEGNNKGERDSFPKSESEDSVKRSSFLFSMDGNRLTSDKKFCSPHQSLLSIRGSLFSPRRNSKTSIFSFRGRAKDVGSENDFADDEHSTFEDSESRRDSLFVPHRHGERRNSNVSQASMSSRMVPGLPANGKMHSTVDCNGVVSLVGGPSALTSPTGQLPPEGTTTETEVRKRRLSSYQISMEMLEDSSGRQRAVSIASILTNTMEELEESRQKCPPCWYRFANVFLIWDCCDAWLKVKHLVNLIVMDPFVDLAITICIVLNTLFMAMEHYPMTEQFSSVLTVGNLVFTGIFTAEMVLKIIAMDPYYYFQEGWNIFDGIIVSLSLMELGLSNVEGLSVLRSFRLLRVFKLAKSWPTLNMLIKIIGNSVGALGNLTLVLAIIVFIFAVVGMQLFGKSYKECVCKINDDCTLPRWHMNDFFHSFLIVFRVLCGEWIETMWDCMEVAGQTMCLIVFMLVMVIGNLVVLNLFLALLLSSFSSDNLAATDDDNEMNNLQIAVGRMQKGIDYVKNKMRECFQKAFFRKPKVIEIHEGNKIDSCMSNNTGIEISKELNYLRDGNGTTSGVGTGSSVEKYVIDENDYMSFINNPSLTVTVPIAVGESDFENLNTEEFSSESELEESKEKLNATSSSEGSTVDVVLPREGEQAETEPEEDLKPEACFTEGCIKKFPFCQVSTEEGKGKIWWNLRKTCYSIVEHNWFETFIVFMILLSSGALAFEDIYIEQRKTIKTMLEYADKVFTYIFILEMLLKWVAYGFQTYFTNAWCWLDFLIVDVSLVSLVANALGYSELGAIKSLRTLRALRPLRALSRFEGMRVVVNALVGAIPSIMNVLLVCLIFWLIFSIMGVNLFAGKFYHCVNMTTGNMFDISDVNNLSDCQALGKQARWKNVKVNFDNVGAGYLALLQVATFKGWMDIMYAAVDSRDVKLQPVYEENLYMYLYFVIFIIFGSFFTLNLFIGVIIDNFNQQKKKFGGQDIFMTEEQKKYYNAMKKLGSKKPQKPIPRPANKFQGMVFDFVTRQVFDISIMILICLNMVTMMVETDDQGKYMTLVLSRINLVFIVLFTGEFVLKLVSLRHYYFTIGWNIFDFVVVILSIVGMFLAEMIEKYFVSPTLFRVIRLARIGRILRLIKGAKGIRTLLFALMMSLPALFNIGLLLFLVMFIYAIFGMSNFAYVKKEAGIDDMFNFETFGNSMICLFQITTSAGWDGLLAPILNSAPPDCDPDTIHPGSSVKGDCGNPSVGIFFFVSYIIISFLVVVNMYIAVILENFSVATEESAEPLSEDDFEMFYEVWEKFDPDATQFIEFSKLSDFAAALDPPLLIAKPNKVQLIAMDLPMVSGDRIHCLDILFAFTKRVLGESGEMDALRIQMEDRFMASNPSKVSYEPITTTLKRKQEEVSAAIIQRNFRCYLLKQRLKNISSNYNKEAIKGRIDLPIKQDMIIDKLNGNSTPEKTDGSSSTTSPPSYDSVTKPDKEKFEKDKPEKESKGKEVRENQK

By IC50 is commonly meant the point on the concentration scale where inhibition reaches its midpoint. For `CC[C@H](C)[C@H](NC(=O)[C@@H](NC(=O)[C@H](CCCCN)NC(=O)[C@H](CCCNC(=N)N)NC(=O)[C@@H]1CSSC[C@@H]2NC(=O)[C@H](C)NC(=O)[C@H](CCCNC(=N)N)NC(=O)[C@H](CCCCN)NC(=O)[C@H](CO)NC(=O)[C@H](CC(=O)O)NC(=O)[C@@H]3CSSC[C@H](NC(=O)[C@H](CCCNC(=N)N)NC(=O)[C@H](CC(C)C)NC(=O)CNC(=O)[C@H](CCC(=O)O)NC(=O)[C@H](CSSC[C@H](NC(=O)[C@@H](N)Cc4ccc(O)cc4)C(=O)N[C@@H](CCC(N)=O)C(=O)N[C@@H](CCCCN)C(=O)N[C@@H](Cc4c[nH]c5ccccc45)C(=O)N[C@@H](CCSC)C(=O)N[C@@H](CCC(=O)O)C(=O)N[C@@H]([C@@H](C)O)C(=O)N3)NC2=O)C(=O)N[C@@H](CCCCN)C(=O)N[C@@H](CC(C)C)C(=O)N[C@@H](Cc2c[nH]c3ccccc23)C(=O)N1)[C@@H](C)CC)C(N)=O` [compound 54], the IC50 at hNav1.7 [1] was 0.56 µM; at hNav1.5 (Table 6), > 5 µM; at hNav1.4 [2] (Table 6), 2.6 µM; on hNav1.3 (Table 6) it was 2.8 µM; at hNav1.6 it was > 10000 nM. For the same molecule, on hNav1.4 [2] (Table 6), the Nav1.4/Nav1.7 is recorded as 5.
`CC[C@H](C)[C@H](NC(=O)[C@@H](NC(=O)[C@H](CCCCN)NC(=O)[C@H](CCCNC(=N)N)NC(=O)[C@@H]1CSSC[C@@H]2NC(=O)[C@H](C)NC(=O)[C@H](CCCNC(=N)N)NC(=O)[C@H](CCCCN)NC(=O)[C@H](CCC(=O)O)NC(=O)[C@H](CC(=O)O)NC(=O)[C@@H]3CSSC[C@H](NC(=O)[C@H](CCCNC(=N)N)NC(=O)[C@H](CC(C)C)NC(=O)CNC(=O)[C@H](CCC(=O)O)NC(=O)[C@H](CSSC[C@H](NC(=O)[C@@H](N)Cc4ccc(O)cc4)C(=O)N[C@@H](CCC(N)=O)C(=O)N[C@@H](CCCCN)C(=O)N[C@@H](Cc4c[nH]c5ccccc45)C(=O)N[C@@H](CCSC)C(=O)N[C@@H](Cc4c[nH]c5ccccc45)C(=O)N[C@@H]([C@@H](C)O)C(=O)N3)NC2=O)C(=O)N[C@@H](CCCCN)C(=O)N[C@@H](CC(C)C)C(=O)N[C@@H](Cc2c[nH]c3ccccc23)C(=O)N1)[C@@H](C)CC)C(N)=O` [compound 57]: the concentration for half-maximal inhibition (IC50) at hNav1.7 [1] is 0.039 µM; at hNav1.5 (Table 6), > 5 µM; at hNav1.4 [2] (Table 6), 0.38 µM; on hNav1.3 (Table 6), 0.19 µM; on hNav1.6, 200 nM. For the same molecule, the Nav1.4/Nav1.7 at hNav1.4 [2] (Table 6) turned out to be 10.
Turning to `CC[C@H](C)[C@H](NC(=O)[C@@H](NC(=O)[C@H](CCCCN)NC(=O)[C@H](CCCNC(=N)N)NC(=O)[C@@H]1CSSC[C@@H]2NC(=O)[C@H](CCC(=O)O)NC(=O)[C@H](CCCNC(=N)N)NC(=O)[C@H](CCCCN)NC(=O)[C@H](CO)NC(=O)[C@H](CC(=O)O)NC(=O)[C@@H]3CSSC[C@H](NC(=O)[C@H](CCCNC(=N)N)NC(=O)[C@H](CC(C)C)NC(=O)CNC(=O)[C@H](CCC(=O)O)NC(=O)[C@H](CSSC[C@H](NC(=O)[C@@H](N)Cc4ccc(O)cc4)C(=O)N[C@@H](CCC(N)=O)C(=O)N[C@@H](CCCCN)C(=O)N[C@@H](Cc4c[nH]c5ccccc45)C(=O)N[C@@H](CCSC)C(=O)N[C@@H](Cc4c[nH]c5ccccc45)C(=O)N[C@@H]([C@@H](C)O)C(=O)N3)NC2=O)C(=O)N[C@@H](CCCCN)C(=O)N[C@@H](CC(C)C)C(=O)N[C@@H](Cc2c[nH]c3ccccc23)C(=O)N1)[C@@H](C)CC)C(N)=O` [compound 60], the IC50 was 0.02 µM on hNav1.7 [1]; > 5 µM at hNav1.5 (Table 6); 0.23 µM at hNav1.4 [2] (Table 6); 0.11 µM at hNav1.3 (Table 6); 146 nM at hNav1.6. For the same molecule, the Nav1.4/Nav1.7 at hNav1.4 [2] (Table 6) is given as 12.
Regarding `CC[C@H](C)[C@H](NC(=O)[C@@H](NC(=O)[C@H](CCCCN)NC(=O)[C@H](CCCNC(=N)N)NC(=O)[C@@H]1CSSC[C@@H]2NC(=O)[C@H](C)NC(=O)[C@H](CCCNC(=N)N)NC(=O)[C@H](CCCCN)NC(=O)[C@H](CO)NC(=O)[C@H](CC(=O)O)NC(=O)[C@@H]3CSSC[C@H](NC(=O)[C@H](CCC(=O)O)NC(=O)[C@H](CC(C)C)NC(=O)CNC(=O)[C@H](CCC(=O)O)NC(=O)[C@H](CSSC[C@H](NC(=O)[C@@H](N)Cc4ccc(O)cc4)C(=O)N[C@@H](CCC(N)=O)C(=O)N[C@@H](CCCCN)C(=O)N[C@@H](Cc4c[nH]c5ccccc45)C(=O)N[C@@H](CCSC)C(=O)N[C@@H](Cc4c[nH]c5ccccc45)C(=O)N[C@@H]([C@@H](C)O)C(=O)N3)NC2=O)C(=O)N[C@@H](CCCCN)C(=O)N[C@@H](CC(C)C)C(=O)N[C@@H](Cc2c[nH]c3ccccc23)C(=O)N1)[C@@H](C)CC)C(N)=O` [compound 63], the Nav1.4/Nav1.7 is 14 at hNav1.7 [1] (ratio of IonWorks Quattro IC50 values, Nav1.4 over Nav1.7); 63 at hNav1.4 [2] (Table 6); 179 on hNav1.7 [3]. The concentration for half-maximal inhibition (IC50) at hNav1.7 [1] is 0.073 µM; on hNav1.5 (Table 6), > 5 µM; on hNav1.4 [2] (Table 6), 4.6 µM; at hNav1.3 (Table 6), 2.5 µM. In addition, the Nav1.5/Nav1.7 on hNav1.7 [3] came out at 1333. Also, the “selectivity against hNav1.4 relative to hNav1.7” value at hNav1.4 [4] is “greater than 1000 fold”.
On to `CC[C@H](C)[C@H](NC(=O)[C@@H](NC(=O)[C@H](CCCCN)NC(=O)[C@H](CCCNC(=N)N)NC(=O)[C@@H]1CSSC[C@@H]2NC(=O)[C@H](C)NC(=O)[C@H](CCCNC(=N)N)NC(=O)[C@H](CCCCN)NC(=O)[C@H](CO)NC(=O)[C@H](CC(=O)O)NC(=O)[C@@H]3CSSC[C@H](NC(=O)[C@H](CCCNC(=N)N)NC(=O)[C@H](CC(C)C)NC(=O)CNC(=O)[C@H](CCC(=O)O)NC(=O)[C@H](CSSC[C@H](NC(=O)[C@@H](N)Cc4ccc(O)cc4)C(=O)N[C@@H](CCC(N)=O)C(=O)N[C@@H](CCCCN)C(=O)N[C@@H](Cc4c[nH]c5ccccc45)C(=O)N[C@@H](CCSC)C(=O)N[C@@H](Cc4c[nH]c5ccccc45)C(=O)N[C@@H]([C@@H](C)O)C(=O)N3)NC2=O)C(=O)N[C@@H](CCCCN)C(=O)N[C@@H](CCC(=O)O)C(=O)N[C@@H](Cc2c[nH]c3ccccc23)C(=O)N1)[C@@H](C)CC)C(N)=O` [compound 65], for which the half-inhibitory concentration (IC50) is 4 µM at hNav1.7 [1]; > 5 µM at hNav1.5 (Table 6); > 5 µM on hNav1.4 [2] (Table 6); 2 µM at hNav1.3 (Table 6); 9550 nM on hNav1.6. Also, on hNav1.4 [2] (Table 6), the Nav1.4/Nav1.7 was found to be 1.
As to `CC[C@H](C)[C@H](NC(=O)[C@H](CCC(=O)O)NC(=O)[C@H](CCCCN)NC(=O)[C@H](CCCNC(=N)N)NC(=O)[C@@H]1CSSC[C@@H]2NC(=O)[C@H](C)NC(=O)[C@H](CCCNC(=N)N)NC(=O)[C@H](CCCCN)NC(=O)[C@H](CO)NC(=O)[C@H](CC(=O)O)NC(=O)[C@@H]3CSSC[C@H](NC(=O)[C@H](CCCNC(=N)N)NC(=O)[C@H](CC(C)C)NC(=O)CNC(=O)[C@H](CCC(=O)O)NC(=O)[C@H](CSSC[C@H](NC(=O)[C@@H](N)Cc4ccc(O)cc4)C(=O)N[C@@H](CCC(N)=O)C(=O)N[C@@H](CCCCN)C(=O)N[C@@H](Cc4c[nH]c5ccccc45)C(=O)N[C@@H](CCSC)C(=O)N[C@@H](Cc4c[nH]c5ccccc45)C(=O)N[C@@H]([C@@H](C)O)C(=O)N3)NC2=O)C(=O)N[C@@H](CCCCN)C(=O)N[C@@H](CC(C)C)C(=O)N[C@@H](Cc2c[nH]c3ccccc23)C(=O)N1)C(N)=O` [compound 69], the half-inhibitory concentration (IC50) at hNav1.7 [1] was 0.028 µM; at hNav1.5 (Table 6) it was > 5 µM; at hNav1.4 [2] (Table 6), 0.83 µM; on hNav1.3 (Table 6), 0.33 µM; on hNav1.7 [3] (Table 15), 0.568 nM; on hNav1.6, 248 nM. Also, the Nav1.4/Nav1.7 at hNav1.4 [2] (Table 6) was determined as 30; at hNav1.7 [3], 300. Moreover, the Nav1.5/Nav1.7 on hNav1.7 [3] is reported as 8800. For the same molecule, the Nav1.6/Nav1.7 at hNav1.6 (ratio of PX tonic IC50 values) came out at 437.
As for `CCCC[C@@H]1NC(=O)[C@H](Cc2c[nH]c3ccccc23)NC(=O)[C@H](CCCCN)NC(=O)[C@H](CCC(N)=O)NC(=O)[C@@H](NC(=O)[C@@H](N)Cc2ccc(O)cc2)CSSC[C@@H]2NC(=O)[C@@H]3CSSC[C@@H](C(=O)N[C@@H](CCCNC(=N)N)C(=O)N[C@@H](CCCCN)C(=O)N[C@H](C(=O)N[C@@H](Cc4cn(CCCOCCOCCOCCOCCOCCOCCOCCOCCOCCOCCN)nn4)C(N)=O)[C@@H](C)CC)NC(=O)[C@H](Cc4c[nH]c5ccccc45)NC(=O)[C@H](CC(C)C)NC(=O)[C@H](CCCCN)NC(=O)[C@H](CSSC[C@H](NC(=O)[C@H]([C@@H](C)O)NC(=O)[C@H](Cc4c[nH]c5ccccc45)NC1=O)C(=O)N[C@@H](CC(=O)O)C(=O)N[C@@H](CO)C(=O)N[C@@H](CCCCN)C(=O)N[C@@H](CCCNC(=N)N)C(=O)N[C@@H](C)C(=O)N3)NC(=O)[C@H](CCCNC(=N)N)NC(=O)[C@H](CC(C)C)NC(=O)CNC(=O)[C@H](CCC(=O)O)NC2=O` [compound 270], the 50% inhibitory concentration (IC50) on hNav1.7 [1] (IonWorks Quattro, […]) is 0.4 µM; on hNav1.5 (Table 9), > 7 µM; on hNav1.4 [2] (Table 9) it was 0.75 µM; on hNav1.3 (Table 9) it was 3.9 µM; at hNav1.7 [3] it was 22 nM. Besides, the Nav1.4/Nav1.7 at hNav1.4 [2] (Table 9) was 2.
